Laboratory results published in patent US20230406865A1, “CRYSTAL FORM OF FREE BASE OF INHIBITOR CONTAINING BICYCLIC RING DERIVATIVE AND PREPARATION METHOD AND APPLICATION OF CRYSTAL FORM” (SHANGHAI HANSOH BIOMEDICAL CO., LTD., priority 2020, published 2023).

Assays:
RET kinase = target: T1, RET kinase (Homo sapiens, UniProt P07949); assay: HTRF kinase activity inhibition, RET wild-type; assay type: biochemical; conditions: ATP at Km
T1 construct: purchased Carna 08-159
Method in brief: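 HTRF (KinEASE-TK) kinase assay with recombinant RET wild-type, RET V804M, RET V804L and KIF5B-RET enzymes plus ATP.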

[1] = Balb/C mouse pharmacokinetics, oral 5 mg/kg; assay type: in vivo, Balb/C mice; conditions: male, p.o. 5 mg/kg, plasma; for MRT: read-out: Average residence time MRT; for Cmax: read-out: Blood concentration Cmax; for AUC(0-t): read-out: Curve area AUC0-t; for AUC(0-inf): read-out: Curve area AUC0-∞; for half-life: read-out: Half-life t1/2 (converted); for Tmax: read-out: Peak time tmax
Method in brief: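 Male Balb/C mice (6 per compound) were fasted overnight and dosed in 0.5% CMC-Na (1% Tween80) solution or suspension. EDTA-K2 plasma was sampled at 0, 0.5, 1, 2, 4, 6, 8 and 24 h. Compound levels were measured by LC/MS/MS after acetonitrile precipitation, and PK parameters were derived from the plasma profiles.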

[2] = test system: subcutaneous transplanted tumor of Ba/F3 KIF5B-RET cells; assay: Tumor suppression on Ba/F3 KIF5B-RET transplanted tumor model; assay type: in vivo, BALB/c nude mice
Experimental: Ba/F3 KIF5B-RET cells were removed from the cell bank, resuscitated and added to RPMI1640 medium (RPMI1640+10% FBS+1% Glu+1% P/S), then cultured in a CO2 incubator (incubator temperature was 37° C., CO2 concentration was 5%), and when the cell number expanded to the required number for in vivo inoculation, Ba/F3 KIF5B-RET cells were collected. The cells were counted with an automatic cell counter, resuspended with PBS according to the count results, made into a cell suspension (density was 2×10^7/mL), and placed in an ice box for use.
Female BALB/c nude mice aged 6-8 weeks were used, weighing about 18-22 g. Mice were reared in SPF animal room, and were reared in a single cage with 5 mice in each cage. All cages, bedding and water were sterilized at high temperature before use, and all animals were allowed to eat and drink freely. Nude mice were labeled with disposable universal ear tags for mice and rats before the start of the experiment, and the skin of the inoculation site was disinfected with 75% medical alcohol before inoculation. 0.1 mL (containing 2*10^6 cells) of Ba/F3 KIF5B-RET cells were inoculated subcutaneously on the right back of each mouse. Group administration was initiated when the tumor volume reached 60-200 mm^3, with 5 mice in each group. Each test compound was administered orally twice a day for 14 days. The tumor volume and the weight of mice were measured twice a week, and the tumor TGI (%) was calculated.
The tumor volume (mm^3) was calculated as V=0.5*D*d*d, where D and d were the long and short diameters of the tumor, respectively.
When there was no tumor regression, TGI (%)=[(1-(mean tumor volume at the end of the administration in a treatment group−mean tumor volume at the start of administration in the treatment group))/(mean tumor volume at the end of treatment in the solvent control group−mean tumor volume at the start of treatment in the solvent control group)]×100%.
When there was tumor regression, TGI (%)=[1-(mean tumor volume at the end of administration in a treatment group−mean tumor volume at the beginning of administration in the treatment group)/mean tumor volume at the beginning of administration in the treatment group]×100%.

T1 sequence (P07949 29-1114): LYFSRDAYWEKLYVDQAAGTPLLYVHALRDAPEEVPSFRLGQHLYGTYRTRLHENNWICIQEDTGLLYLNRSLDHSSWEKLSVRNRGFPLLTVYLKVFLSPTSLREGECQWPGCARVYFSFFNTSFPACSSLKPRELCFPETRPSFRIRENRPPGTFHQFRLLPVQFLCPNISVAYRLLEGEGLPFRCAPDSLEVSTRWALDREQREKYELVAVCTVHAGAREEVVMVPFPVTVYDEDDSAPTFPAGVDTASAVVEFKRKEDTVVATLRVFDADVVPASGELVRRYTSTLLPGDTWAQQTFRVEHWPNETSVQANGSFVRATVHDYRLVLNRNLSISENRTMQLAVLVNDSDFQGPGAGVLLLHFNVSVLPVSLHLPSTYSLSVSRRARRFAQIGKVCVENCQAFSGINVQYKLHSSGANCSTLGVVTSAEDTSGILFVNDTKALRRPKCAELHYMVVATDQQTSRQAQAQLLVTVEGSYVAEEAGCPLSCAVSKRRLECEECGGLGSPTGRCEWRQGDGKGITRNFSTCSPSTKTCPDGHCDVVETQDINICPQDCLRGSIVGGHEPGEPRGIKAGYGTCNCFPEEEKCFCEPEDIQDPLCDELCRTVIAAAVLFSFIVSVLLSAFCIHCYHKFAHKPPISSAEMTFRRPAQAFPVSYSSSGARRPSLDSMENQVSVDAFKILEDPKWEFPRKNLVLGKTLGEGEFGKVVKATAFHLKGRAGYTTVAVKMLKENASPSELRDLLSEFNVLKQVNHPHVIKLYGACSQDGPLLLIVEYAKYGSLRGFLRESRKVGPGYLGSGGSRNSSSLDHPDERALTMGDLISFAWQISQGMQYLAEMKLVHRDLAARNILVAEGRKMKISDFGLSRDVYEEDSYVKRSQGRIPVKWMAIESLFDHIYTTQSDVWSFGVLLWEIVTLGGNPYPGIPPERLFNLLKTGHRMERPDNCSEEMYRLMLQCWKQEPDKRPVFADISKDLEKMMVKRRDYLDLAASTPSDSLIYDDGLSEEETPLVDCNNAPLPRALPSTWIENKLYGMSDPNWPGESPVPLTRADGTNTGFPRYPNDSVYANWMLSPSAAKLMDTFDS

C#C[C@](C)(O)COc1cc(-c2ccc(N3CC4CC(C3)N4Cc3ccc(OC)nc3)nc2)c2c(C#N)cnn2c1 [Embodiment 64, 6-(((S)-2-hydroxy-2-methylbut-3-yn-1-yl)oxy)-4-(6-(6-((6-methoxypyridin-3-yl)methyl)-3,6-diazabicyclo[3.1.1]heptan-3-yl)pyridin-3-yl)pyrazolo[1,5-a]pyridine-3-carbonitrile]
IC50 (RET kinase): 0.38 nM | MRT [1]: 2.7 h | Cmax [1]: 3920 ng/mL | AUC(0-t) [1]: 14500 ng·h/mL | AUC(0-inf) [1]: 14500 ng·h/mL | half-life [1]: 1.2 h | Tmax [1]: 1 h | Tumor volume (Mean ± SD) Day 0 ([2]; 10 mg/kg oral twice a day): 126.93 ± 16.98 mm^3 | TGI (%) Day 14 ([2]; 10 mg/kg oral twice a day): 88.39% | Tumor volume (Mean ± SD) Day 14 ([2]; 10 mg/kg oral twice a day): 330.85 ± 147.00 mm^3

C#C[C@@](C)(O)COc1cc(-c2ccc(N3CC4CC(C3)N4Cc3ccc(OC)nc3)nc2)c2c(C#N)cnn2c1 [Embodiment 63, 6-(((R)-2-hydroxy-2-methylbut-3-yn-1-yl)oxy)-4-(6-(6-((6-methoxypyridin-3-yl)methyl)-3,6-diazabicyclo[3.1.1]heptan-3-yl)pyridin-3-yl)pyrazolo[1,5-a]pyridine-3-carbonitrile]
IC50 (RET kinase): 0.34 nM | MRT [1]: 2.9 h | Cmax [1]: 2940 ng/mL | AUC(0-t) [1]: 11000 ng·h/mL | AUC(0-inf) [1]: 11000 ng·h/mL | half-life [1]: 1.3 h | Tmax [1]: 1 h | Tumor volume (Mean ± SD) Day 0 ([2]; 10 mg/kg oral twice a day): 126.13 ± 17.24 mm^3 | TGI (%) Day 14 ([2]; 10 mg/kg oral twice a day): 94.66% | Tumor volume (Mean ± SD) Day 14 ([2]; 10 mg/kg oral twice a day): 219.86 ± 64.31 mm^3

COc1ncc(CN2C3CC2CN(c2ccc(-c4cc(C#CC(C)(C)O)cn5ncc(C#N)c45)cn2)C3)cc1F [Embodiment 18, 4-(6-(6-((5-Fluoro-6-methoxypyridin-3-yl)methyl)-3,6-diazabicyclo[3.1.1]heptan-3-yl)pyridin-3-yl)-6-(3-hydroxy-3-methylbut-1-yn-1-yl)pyrazolo[1,5-a]pyridine-3-carbonitrile]
IC50 (RET kinase): 0.31 nM | MRT [1]: 4.61 h | Cmax [1]: 2790 ng/mL | AUC(0-t) [1]: 18200 ng·h/mL | AUC(0-inf) [1]: 18200 ng·h/mL | half-life [1]: 2.9 h | Tmax [1]: 0.5 h | Tumor volume (Mean ± SD) Day 0 ([2]; 30 mg/kg oral twice a day): 132.34 ± 19.40 mm^3 | TGI (%) Day 14 ([2]; 30 mg/kg oral twice a day): 110.35% | Tumor volume (Mean ± SD) Day 14 ([2]; 30 mg/kg oral twice a day): 118.64 ± 84.34 mm^3

COc1ccc(CN2C3CC2CN(c2ccc(-c4cc(N5CC(C)(C#N)C5)cn5ncc(C#N)c45)cn2)C3)cn1 [Embodiment 77, 6-(3-Cyano-3-methylazetidin-1-yl)-4-(6-(6-((6-methoxypyridin-3-yl)methyl)-3,6-diazabicyclo[3.1.1]heptan-3-yl)pyridin-3-yl)pyrazolo[1,5-a]pyridine-3-carbonitrile]
IC50 (RET kinase): 0.37 nM | MRT [1]: 6 h | Cmax [1]: 4680 ng/mL | AUC(0-t) [1]: 51600 ng·h/mL | AUC(0-inf) [1]: 51900 ng·h/mL | half-life [1]: 3.2 h | Tmax [1]: 0.5 h | Tumor volume (Mean ± SD) Day 0 ([2]; 10 mg/kg oral twice a day): 101.59 ± 36.86 mm^3 | TGI (%) Day 14 ([2]; 10 mg/kg oral twice a day): 159.80% | Tumor volume (Mean ± SD) Day 14 ([2]; 10 mg/kg oral twice a day): 40.84 ± 53.92 mm^3
